# Results from ChEMBL document CHEMBL1133958, “Derivatives of (2R,3R,4S)-2-aminomethylpyrrolidine-3,4-diol are selective alpha-mannosidase inhibitors” (Bioorg Med Chem Lett, 2001).
# Active and inactive are the calls of the source. No cut-off for these calls is given here.
# Legend:
# [1] = biological target: T1, Beta-galactosidase (Bos taurus) (UniProt Q58D55); experiment: Percentage inhibition of Beta-galactosidase from Bovine liver at 1 mM concentration; No inhibition
# T1 sequence (whole entry): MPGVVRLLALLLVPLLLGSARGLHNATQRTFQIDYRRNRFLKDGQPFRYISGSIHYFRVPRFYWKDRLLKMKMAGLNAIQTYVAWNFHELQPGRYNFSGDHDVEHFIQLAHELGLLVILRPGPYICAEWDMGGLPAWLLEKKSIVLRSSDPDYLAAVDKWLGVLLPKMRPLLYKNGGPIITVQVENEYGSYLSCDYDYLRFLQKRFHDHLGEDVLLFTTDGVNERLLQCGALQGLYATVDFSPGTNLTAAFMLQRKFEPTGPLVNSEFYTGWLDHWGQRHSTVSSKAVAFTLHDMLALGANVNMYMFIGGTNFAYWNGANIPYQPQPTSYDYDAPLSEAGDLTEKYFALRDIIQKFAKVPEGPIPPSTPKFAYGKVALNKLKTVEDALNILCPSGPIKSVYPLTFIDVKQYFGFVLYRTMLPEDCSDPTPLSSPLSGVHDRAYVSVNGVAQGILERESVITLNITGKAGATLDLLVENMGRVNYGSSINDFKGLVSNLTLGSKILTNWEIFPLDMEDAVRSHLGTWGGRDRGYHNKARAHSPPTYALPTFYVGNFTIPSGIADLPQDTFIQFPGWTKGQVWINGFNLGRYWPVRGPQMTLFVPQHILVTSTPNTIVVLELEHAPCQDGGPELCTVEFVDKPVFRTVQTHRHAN
# [2] = biological target: T2, Glucoamylase 1 (Rhizopus oryzae) (UniProt P07683); experiment: Percentage inhibition of Alpha-glucosidase from Rhizopus mold (amyloglucosidase) at 1 mM concentration; No inhibition; details: Rhizopus arrhizus
# T2 sequence (whole entry): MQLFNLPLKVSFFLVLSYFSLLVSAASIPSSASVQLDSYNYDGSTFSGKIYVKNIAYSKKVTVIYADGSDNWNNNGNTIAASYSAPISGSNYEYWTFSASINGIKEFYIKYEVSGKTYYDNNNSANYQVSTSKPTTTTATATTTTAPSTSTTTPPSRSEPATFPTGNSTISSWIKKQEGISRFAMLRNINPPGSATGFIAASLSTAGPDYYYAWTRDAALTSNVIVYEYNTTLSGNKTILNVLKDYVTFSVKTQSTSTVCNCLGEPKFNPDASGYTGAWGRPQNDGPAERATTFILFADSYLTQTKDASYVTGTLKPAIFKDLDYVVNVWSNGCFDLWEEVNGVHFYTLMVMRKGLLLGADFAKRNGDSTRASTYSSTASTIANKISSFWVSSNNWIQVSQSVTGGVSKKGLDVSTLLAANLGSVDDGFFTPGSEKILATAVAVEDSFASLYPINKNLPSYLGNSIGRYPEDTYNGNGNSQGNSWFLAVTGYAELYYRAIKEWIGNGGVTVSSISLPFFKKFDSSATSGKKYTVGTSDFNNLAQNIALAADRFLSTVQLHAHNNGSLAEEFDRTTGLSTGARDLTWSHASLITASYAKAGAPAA
# [3] = biological target: T3, Alpha-glucosidase (Oryza sativa Japonica Group) (UniProt Q9LGC6); experiment: Percentage inhibition of Alpha-glucosidase from Rice (maltase) at 1 mM; […]
# T3 sequence (whole entry): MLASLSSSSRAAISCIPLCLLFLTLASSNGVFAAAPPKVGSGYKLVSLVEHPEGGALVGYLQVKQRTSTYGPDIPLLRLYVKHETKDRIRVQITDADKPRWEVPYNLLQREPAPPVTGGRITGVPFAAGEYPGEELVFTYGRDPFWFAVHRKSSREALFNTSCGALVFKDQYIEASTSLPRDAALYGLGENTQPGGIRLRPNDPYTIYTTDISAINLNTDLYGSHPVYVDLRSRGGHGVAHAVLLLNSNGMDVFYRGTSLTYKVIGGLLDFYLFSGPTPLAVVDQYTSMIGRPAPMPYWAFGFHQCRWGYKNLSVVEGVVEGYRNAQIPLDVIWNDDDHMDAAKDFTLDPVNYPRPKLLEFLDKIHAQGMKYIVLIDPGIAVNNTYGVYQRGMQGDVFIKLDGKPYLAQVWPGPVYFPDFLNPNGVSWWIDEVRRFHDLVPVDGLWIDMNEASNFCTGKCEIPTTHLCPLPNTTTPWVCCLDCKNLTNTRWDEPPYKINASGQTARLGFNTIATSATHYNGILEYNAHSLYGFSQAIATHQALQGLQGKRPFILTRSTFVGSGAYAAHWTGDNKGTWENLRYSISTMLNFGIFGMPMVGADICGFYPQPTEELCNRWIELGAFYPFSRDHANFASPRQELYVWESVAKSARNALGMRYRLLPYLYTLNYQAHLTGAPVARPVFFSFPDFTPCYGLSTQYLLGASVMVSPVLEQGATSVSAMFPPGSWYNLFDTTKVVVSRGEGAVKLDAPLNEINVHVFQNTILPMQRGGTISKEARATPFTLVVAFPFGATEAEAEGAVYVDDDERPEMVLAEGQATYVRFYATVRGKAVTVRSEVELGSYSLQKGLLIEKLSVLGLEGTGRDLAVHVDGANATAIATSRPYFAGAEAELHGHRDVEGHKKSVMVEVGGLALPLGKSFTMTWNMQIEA
# [4] = biological target: Beta-galactosidase (Escherichia coli K-12) (UniProt P00722); experiment: Percentage inhibition of Beta-galactosidase from Escherichia coli at 1 mM concentration; No inhibition
# Saccharomyces cerevisiae [5] = experiment: Percentage inhibition of Alpha-glucosidase from Baker yeast (isomaltase) at 1 mM
# [6] = Inhibitory activity towards Alpha-glucosidase from Yeast (maltase); set-up: species or system Saccharomyces cerevisiae
# [7] = biological target: T4, Beta-galactosidase (Aspergillus niger) (UniProt P29853); experiment: Percentage inhibition of Beta-galactosidase from Aspergillus niger at 1 mM concentration
# T4 sequence (whole entry): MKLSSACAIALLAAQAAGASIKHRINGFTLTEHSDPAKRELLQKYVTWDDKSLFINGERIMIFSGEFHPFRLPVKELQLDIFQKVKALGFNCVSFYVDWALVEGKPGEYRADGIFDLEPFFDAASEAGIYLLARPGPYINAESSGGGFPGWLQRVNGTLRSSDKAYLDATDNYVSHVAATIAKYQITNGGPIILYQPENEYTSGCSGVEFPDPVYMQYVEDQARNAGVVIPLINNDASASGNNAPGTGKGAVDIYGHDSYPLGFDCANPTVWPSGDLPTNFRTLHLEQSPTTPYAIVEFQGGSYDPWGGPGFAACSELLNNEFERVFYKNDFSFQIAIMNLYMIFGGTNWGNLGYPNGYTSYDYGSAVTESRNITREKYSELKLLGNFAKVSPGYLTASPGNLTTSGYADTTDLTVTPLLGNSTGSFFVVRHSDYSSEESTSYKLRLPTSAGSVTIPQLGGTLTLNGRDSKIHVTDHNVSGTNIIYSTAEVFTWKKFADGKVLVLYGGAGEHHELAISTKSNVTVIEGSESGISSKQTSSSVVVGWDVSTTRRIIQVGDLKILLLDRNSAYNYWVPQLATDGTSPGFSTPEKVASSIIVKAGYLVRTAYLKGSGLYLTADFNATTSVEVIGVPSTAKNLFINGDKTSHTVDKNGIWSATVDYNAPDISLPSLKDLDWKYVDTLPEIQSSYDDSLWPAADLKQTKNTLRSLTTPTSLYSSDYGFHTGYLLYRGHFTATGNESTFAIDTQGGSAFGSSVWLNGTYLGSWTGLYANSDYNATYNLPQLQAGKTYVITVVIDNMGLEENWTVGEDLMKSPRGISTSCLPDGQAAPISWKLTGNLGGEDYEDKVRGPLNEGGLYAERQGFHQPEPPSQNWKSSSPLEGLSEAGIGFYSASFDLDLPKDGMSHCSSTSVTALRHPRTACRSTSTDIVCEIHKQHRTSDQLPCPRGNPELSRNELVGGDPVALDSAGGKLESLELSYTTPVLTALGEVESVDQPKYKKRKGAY
# Beta-glucosidase A [8] = biological target: T5, Beta-glucosidase A (Caldicellulosiruptor saccharolyticus, UniProt P10482); experiment: Inhibitory activity towards Beta-Glucosidase from Caldocellum saccharol.
# Beta-glucosidase A [9] = biological target: T5, Beta-glucosidase A; experiment: Inhibitory activity towards Beta-Glucosidase from Caldocellum saccharol
# Saccharomyces cerevisiae [10] = experiment: Percentage inhibition of Alpha-glucosidase from Yeast (maltase) at 1 mM
# [11] = biological target: Beta-glucosidase A (Caldicellulosiruptor saccharolyticus) (UniProt P10482); experiment: Percentage inhibition of Beta-Glucosidase from Caldocellum saccharol. at 1 mM
# [12] = biological target: Glucoamylase (Aspergillus niger) (UniProt P69328); experiment: Percentage inhibition of Alpha-glucosidase from Aspergillus niger (amyloglucosidase) at 1 mM; No inhibition
# [13] = Percentage inhibition of Beta-galactosidase from Aspergillus oryzae at 1 mM; No inhibition
# [14] = system: Alpha-mannosidase (Prunus dulcis); experiment: Percentage inhibition of Alpha-mannosidase from Almond at 1 mM
# [15] = Inhibitory activity towards Alpha-glucosidase from Baker yeast (isomaltase); set-up: species or system Saccharomyces cerevisiae
# Saccharomyces cerevisiae [16] = experiment: Percentage inhibition of Alpha-glucosidase from Yeast (maltase) at 1 mM; […]
# [17] = Percentage inhibition of Beta-galactosidase from Jack bean at 1 mM concentration; No inhibition; details: Canavalia ensiformis
# Saccharomyces cerevisiae [18] = experiment: Percentage inhibition of Alpha-glucosidase from Baker yeast (isomaltase) at 1 mM; No inhibition
# [19] = biological target: T1, Beta-galactosidase (Bos taurus); experiment: Percentage inhibition of Beta-galactosidase from Bovine liver at 1 mM concentration
# [20] = biological target: T4, Beta-galactosidase (Aspergillus niger); experiment: Percentage inhibition of Beta-galactosidase from Aspergillus niger at 1 mM concentration; […]
# [21] = biological target: Beta-glucosidase A (Caldicellulosiruptor saccharolyticus) (UniProt P10482); experiment: Percentage inhibition of Beta-Glucosidase from Caldocellum saccharol. at 1 mM; No inhibition
# [22] = biological target: Beta-galactosidase (Escherichia coli K-12) (UniProt P00722); experiment: Percentage inhibition of Beta-galactosidase from Escherichia coli at 1 mM concentration
# [23] = Percentage inhibition of Beta-galactosidase from Aspergillus oryzae at 1 mM
# T5 sequence (P10482 whole entry): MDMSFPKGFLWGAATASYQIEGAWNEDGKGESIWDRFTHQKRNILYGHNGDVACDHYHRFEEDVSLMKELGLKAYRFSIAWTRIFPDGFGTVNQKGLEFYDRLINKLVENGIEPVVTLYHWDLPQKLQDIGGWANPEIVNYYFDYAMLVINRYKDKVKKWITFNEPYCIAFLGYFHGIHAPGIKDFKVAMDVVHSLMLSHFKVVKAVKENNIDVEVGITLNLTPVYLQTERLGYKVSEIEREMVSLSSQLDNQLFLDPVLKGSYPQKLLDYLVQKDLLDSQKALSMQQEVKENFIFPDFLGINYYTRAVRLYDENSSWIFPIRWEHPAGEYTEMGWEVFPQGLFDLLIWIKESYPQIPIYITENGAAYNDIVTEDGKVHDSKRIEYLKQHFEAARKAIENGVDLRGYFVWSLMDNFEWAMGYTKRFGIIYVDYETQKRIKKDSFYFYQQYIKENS
# Chain of Beta-glucosidase A (Caldicellulosiruptor saccharolyticus) (P10482 whole entry): as above
# Chain of Glucoamylase (Aspergillus niger) (P69328 whole entry): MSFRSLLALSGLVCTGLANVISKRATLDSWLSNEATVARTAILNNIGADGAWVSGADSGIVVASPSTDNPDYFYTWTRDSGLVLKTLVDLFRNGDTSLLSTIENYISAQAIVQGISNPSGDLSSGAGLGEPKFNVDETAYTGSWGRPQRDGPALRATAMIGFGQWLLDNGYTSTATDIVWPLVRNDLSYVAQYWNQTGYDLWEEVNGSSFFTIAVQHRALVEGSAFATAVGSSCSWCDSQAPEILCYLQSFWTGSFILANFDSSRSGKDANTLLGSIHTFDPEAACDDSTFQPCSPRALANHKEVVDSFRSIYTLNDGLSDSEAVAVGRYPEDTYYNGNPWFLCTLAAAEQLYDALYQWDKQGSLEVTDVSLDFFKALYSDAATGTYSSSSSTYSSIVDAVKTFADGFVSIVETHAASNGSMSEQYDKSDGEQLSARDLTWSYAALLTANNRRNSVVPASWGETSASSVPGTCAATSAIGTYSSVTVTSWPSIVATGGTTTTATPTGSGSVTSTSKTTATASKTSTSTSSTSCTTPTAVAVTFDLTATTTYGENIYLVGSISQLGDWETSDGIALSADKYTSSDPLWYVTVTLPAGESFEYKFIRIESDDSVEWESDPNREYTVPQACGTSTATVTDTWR
# Chain of Beta-galactosidase (Escherichia coli K-12) (P00722 whole entry): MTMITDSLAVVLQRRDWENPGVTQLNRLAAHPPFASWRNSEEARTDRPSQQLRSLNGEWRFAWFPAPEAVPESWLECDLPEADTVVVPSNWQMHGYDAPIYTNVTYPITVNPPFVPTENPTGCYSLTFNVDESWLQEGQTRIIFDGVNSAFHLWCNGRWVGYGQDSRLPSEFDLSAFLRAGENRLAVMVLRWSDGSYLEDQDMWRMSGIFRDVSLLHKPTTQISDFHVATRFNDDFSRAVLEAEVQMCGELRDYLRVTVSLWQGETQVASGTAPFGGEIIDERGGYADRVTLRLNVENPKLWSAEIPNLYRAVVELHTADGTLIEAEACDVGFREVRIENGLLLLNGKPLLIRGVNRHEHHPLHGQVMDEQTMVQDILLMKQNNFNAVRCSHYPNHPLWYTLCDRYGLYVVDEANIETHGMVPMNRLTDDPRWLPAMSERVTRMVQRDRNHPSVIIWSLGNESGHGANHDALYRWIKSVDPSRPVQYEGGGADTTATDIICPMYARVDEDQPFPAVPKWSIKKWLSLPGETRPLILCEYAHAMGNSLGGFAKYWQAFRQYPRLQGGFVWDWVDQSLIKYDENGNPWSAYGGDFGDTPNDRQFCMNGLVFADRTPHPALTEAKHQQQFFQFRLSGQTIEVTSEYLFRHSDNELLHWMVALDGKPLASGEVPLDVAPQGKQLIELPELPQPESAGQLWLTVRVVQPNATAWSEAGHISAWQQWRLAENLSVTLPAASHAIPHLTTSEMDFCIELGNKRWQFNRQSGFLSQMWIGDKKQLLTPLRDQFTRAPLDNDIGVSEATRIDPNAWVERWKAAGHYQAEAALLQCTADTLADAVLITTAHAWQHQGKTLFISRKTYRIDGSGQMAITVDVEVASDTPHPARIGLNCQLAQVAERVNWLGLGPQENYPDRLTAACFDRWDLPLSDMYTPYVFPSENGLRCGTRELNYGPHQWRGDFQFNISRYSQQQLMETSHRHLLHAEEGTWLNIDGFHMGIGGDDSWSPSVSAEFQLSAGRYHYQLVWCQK
inhibition [1],inhibition [2],inhibition [3],inhibition [4],inhibition (Saccharomyces cerevisiae [5]),inhibition [7],inhibition (Saccharomyces cerevisiae [10]),inhibition [11],inhibition [12],inhibition [13],inhibition [14],IC50 [15],Ki [15],inhibition (Saccharomyces cerevisiae [16]),inhibition [17],inhibition (Saccharomyces cerevisiae [18]),inhibition [20],inhibition [22],SMILES,further results
inactive,inactive,inactive,inactive,94%,39%,66%,75%,inactive,inactive,29%,65 µM,45 µM,,,,,,OC1CNC(CNCc2ccco2)C1O (stereo not given),IC50 [6]: 280 µM; IC50 (Beta-glucosidase A [8]): 250 µM; Ki (Beta-glucosidase A [9]): 60 µM
,inactive,inactive,inactive,,,,40%,inactive,inactive,,,,inactive,inactive,inactive,inactive,,OCC(O)[C@H]1NC[C@H](O)[C@@H]1O (stereo not given in full),inhibition [19]: 32%
,inactive,inactive,,,,,,inactive,inactive,,,,inactive,,inactive,inactive,24%,OC1CNC(CNCc2ccccc2)C1O (stereo not given),inhibition [21]: inactive; inhibition [19]: 26%
inactive,inactive,inactive,inactive,23%,,,38%,inactive,inactive,68%,,,inactive,,,inactive,,OC1CNC(CNCc2cccs2)C1O (stereo not given),
inactive,inactive,inactive,,90%,41%,55%,76%,inactive,,59%,120 µM,40 µM,,,,,49%,OC1CNC(CNCn2ccnc2)C1O (stereo not given),IC50 [6]: 610 µM; IC50 (Beta-glucosidase A [8]): 290 µM; Ki (Beta-glucosidase A [9]): 120 µM; inhibition [23]: 24%
inactive,inactive,inactive,inactive,33%,,,43%,inactive,inactive,,,,inactive,inactive,,inactive,,CC(=O)N(Cc1ccccc1)CC1NCC(O)C1O (stereo not given),
inactive,inactive,inactive,inactive,,,,,inactive,inactive,,,,inactive,inactive,inactive,inactive,,OC1CNC(CCNc2ccccc2)C1O (stereo not given),inhibition [21]: inactive
inactive,inactive,inactive,,34%,,,49%,inactive,inactive,48%,,,inactive,,,inactive,34%,C[C@@H](NCC1NCC(O)C1O)c1ccccc1 (stereo not given in full),
inactive,inactive,inactive,inactive,92%,26%,30%,29%,inactive,inactive,53%,170 µM,71 µM,,,,,,OC1CNC(CNC2CCCC2)C1O (stereo not given),
